Counter-ions that a name gives are not always drawn.
Molecular target: T1, serotonin re-uptake (Rattus norvegicus, UniProt P31652)
T1 construct: synaptosome prepared from rat whole brains except the cerebellums; from tissue; host or cells: synaptosomes from rat whole brain except the cerebellum
Experiment: Serotonin re-uptake inhibitory activity (synaptosome, [3H]5-HT)
Format: biochemical
Details: not given
Protocol: Serotonin re-uptake inhibitory activity was determined using synaptosome prepared from rat whole brains except the cerebellums. Briefly, 10 μl of DMSO solution-dissolved test substance (control group; DMSO solution alone) was added to 1 ml of synaptosome and incubated for 5 min at 37° C. (in the control, DMSO alone was added to the synaptosome and incubated at 4° C.). Furthermore, 10 μl of [^3H]5-HT solution (final concentration: 10 μM as a total concentration of 5-HT, 100 nM as [^3H]5-HT) was added and incubated for 5 min at 37° C. Then 4 ml of ice-cold saline was added to stop the response. The response solution was filtered, 4 ml of saline was added, and the solution was once again filtered. Furthermore, 5 ml of Pico-Fluor was added, then ^3H levels on filter papers were counted by a liquid scintillation counter. Concentrations of test compounds to inhibit serotonin re-uptake by 50% (IC50) were calculated.

T1 sequence (P31652 whole entry): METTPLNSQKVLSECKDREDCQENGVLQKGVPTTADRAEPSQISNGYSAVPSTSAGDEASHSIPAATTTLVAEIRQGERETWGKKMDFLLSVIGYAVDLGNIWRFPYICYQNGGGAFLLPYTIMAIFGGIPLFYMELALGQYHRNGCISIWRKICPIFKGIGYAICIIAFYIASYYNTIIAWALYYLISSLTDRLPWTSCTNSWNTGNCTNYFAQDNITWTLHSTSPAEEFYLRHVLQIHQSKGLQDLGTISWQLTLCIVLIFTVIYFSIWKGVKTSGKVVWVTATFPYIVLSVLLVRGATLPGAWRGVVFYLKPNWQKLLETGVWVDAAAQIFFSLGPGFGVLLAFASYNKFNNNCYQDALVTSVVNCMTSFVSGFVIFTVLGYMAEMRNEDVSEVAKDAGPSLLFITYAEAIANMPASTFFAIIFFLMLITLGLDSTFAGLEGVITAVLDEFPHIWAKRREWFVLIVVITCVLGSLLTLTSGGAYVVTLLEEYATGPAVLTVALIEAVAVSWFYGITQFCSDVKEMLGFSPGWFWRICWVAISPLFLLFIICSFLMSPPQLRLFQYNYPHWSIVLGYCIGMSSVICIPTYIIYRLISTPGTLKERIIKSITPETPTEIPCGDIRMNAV

| Compound | IC50 [nM] |
| --- | --- |
| Cc1cc(OCCC2c3cccc(OC(=O)N(C)C)c3C=CCN2C)ccc1Cl (stereo not shown) [Test Compound 202, 2-Methyl-[2-(4-chloro-3-methylphenoxy)-ethyl]-2,3-dihydro-1H-benzo[c]azepin-6-yl dimethylcarbamate hydrochloride] | 900 |

Same assay, conditions: synaptosome from rat whole brain except cerebellum; [3H]5-HT, 37° C.; read-out: IC50 (nM) Serotonin re-uptake inhibitory activity

| Compound | IC50 [nM] |
| --- | --- |
| 2-Methyl-1-[2-(4-methylthiophenoxy)-ethyl]-2,3-dihydro-1H-benzo[c]azepin-7-yl dimethylcarbamate hydrochloride [Test Compound 196] | 18 |
| 2-Methyl-(1R)-[2-(4-methylthiophenoxy)-ethyl]-2,3-dihydro-1H-benzo[c]azepin-7-yl dimethylcarbamate hydrochloride [Test Compound 197] | 6 |
| 4-[3-(4-Chlorophenoxy)-1-dimethylaminopropyl]-2-methylphenyl dimethylcarbamate hydrochloride [Test Compound 185] | 170 |
| 4-[3-(4-Methylthiophenoxy)-1-dimethylaminopropyl]-2-methylphenyl dimethylcarbamate hydrochloride [Test Compound 186] | 62 |
| 4-[3-(4-Methylthiophenoxy)-1-dimethylaminopropyl]phenyl dimethylcarbamate hydrochloride [Test Compound 175] | 380 |
| 4-[3-(4-Methylthiophenoxy)-1-methylaminopropyl]phenyl dimethylcarbamate hydrochloride [Test Compound 174] | 85 |
| 4-[3-(4-Nitrophenoxy)-1-dimethylaminopropyl]-2-methylphenyl dimethylcarbamate hydrochloride [Test Compound 182] | 44 |
| CN(C)C(=O)Oc1ccc2c(c1)C=CCN(C)C2CCOc1ccc([N+](=O)[O-])cc1 (stereo not shown) [Test Compound 192, 2-Methyl-1-[2-(4-nitrophenoxy)-ethyl]-2,3-dihydro-1H-benzo[c]azepin-7-yl dimethylcarbamate hydrochloride] | 63 |
| CN(C)C(=O)Oc1ccc2c(c1)C=CCN(C)[C@@H]2CCOc1ccc([N+](=O)[O-])cc1 [Test Compound 199, 2-Methyl-[[(1S)]] (1R)-[2-(4-nitrophenoxy)-ethyl]-2,3-dihydro-1H-benzo[c]azepin-7-yl dimethylcarbamate hydrochloride] | 6 |
| CN(C)C(=O)Oc1ccc2c(c1)C=CCN(C)[C@H]2CCOc1ccc([N+](=O)[O-])cc1 [Test Compound 200, 2-Methyl-(1S)-[2-(4-nitrophenoxy)-ethyl]-2,3-dihydro-1H-benzo[c]azepin-7-yl dimethylcarbamate hydrochloride] | 930 |
| (R)-4-[3-(4-Methylthiophenoxy)-1-methylaminopropyl]phenyl dimethylcarbamate hydrochloride [Test Compound 177] | 120 |
| (S)-4-[3-(4-Methylthiophenoxy)-1-methylaminopropyl]phenyl dimethylcarbamate hydrochloride [Test Compound 176] | 56 |
